We go through two compounds from US11806361B2, “Treatments of non-alcoholic steatohepatitis (NASH)” (DEUTSCHES KREBSFORSCHUNGSZENTRUM STIFTUNG DES ÖFFENTLICHEN …, priority 2016, dated 2023).

In one assay the test system is CD-HFD fed C57BL/6 mice. Description: CD-HFD mouse model of NASH and NASH-triggered HCC. Particulars: for development of NASH: MRI analysis and histological analysis; for Histopathological signs of NASH (e.g. ballooned hepatocytes): H/E stains of liver; for Aberrant hepatic lipid metabolism and b-Oxidation: Real time PCR analysis for gene expression in the liver. The class given is in vivo. From the text:
Indeed that approach enabled the inventors to study a chronic model of NASH in the context of metabolic syndrome, triggering subsequent HCC in C57BL/6 mice, in the absence of chemical carcinogens or genetic mutations predisposing to NASH or HCC development. CD-HFD fed mice display several long term pathologies observed in human patients: abdominal obesity, overweight, insulin resistance, liver damage, production of reactive oxygen species (ROS) fibrosis, hepatic mitochondrial damage, dyslipidemia and NASH. Moreover, HCC developed 12 months post CD-HFD start and resembled histologically, genetically and morphologically human HCC (FIG. 1). Cholesterol Diet—High Fat Diet (CD-HFD) in mice recapitulates human NASH and NASH triggered HCC pathology. (FIG. 1A) Weight development in male normal diet fed (ND) and CD-HFD fed C57BL/6 mice. (FIG. 1B) Intraperitoneal Glucose tolerance test performed with 6-month-old male ND and CD-HFD C57BL/6 mice. (FIG. 1C) Quantification of serum aminotransferase (ALT) levels in male C57BL/6 mice reflecting liver damage. (FIG. 1D) MRI analyses on livers of 6-month-old ND and CD-HFD C57BL/6 mice. T1 (fast low-angle shot [FLASH]) OUT phase: dark color indicative of steatosis. T2 TurboRare visualizes increase in subcutaneous and abdominal fat and hepatic lipid accumulation (bright regions) in CD-HFD mice. (FIG. 1E) Macroscopy and histopathology of livers from 12-month-old ND, HFD, or CD-HFD C57BL/6 mice, with arrowhead pointing towards HCC. Scale bar: 5 mm. T: Tumor. NT: Non-Tumor. ***P=0.001. (F) Representative H&E staining of 12-month-old CD-HFD C57BL/6 livers and human livers illustrating NASH. Accumulation of Mallory Denk bodies (red arrowhead), ballooned hepatocytes (brown arrowhead), and satellitosis (blue arrowhead) is similar to human NASH pathology (right image). Scale bar: 50 μm.
(§1) Aspirin/Clopidrogrel (Asp/Clop), a thrombocyte aggregation inhibitor, treatment reduces the capacity of platelets aggregate and prevents NASH and aberrant hepatic lipid metabolism (FIG. 5). (FIG. 5A) Asprin/Clopidrogrel treatment reduces the number of platelets in the liver (White bars: ND; Black bars: CD-HFD; Green bars: CD-HFD treated with Asp/Clop). […] (FIG. 5E) Liver to body weight ratio is rescued upon Asp/Clop treatment at 12 months of age. (FIG. 5F) Liver damage as measured by ALT levels in serum is prevented in Asp/Clop treated mice. (FIG. 5G) Triglycerides are reduced in serum of Asp/Clop treated mice at 12 months of age. (FIG. 5H) Serum cholesterol is reduced in Asp/Clop treated mice at 6 and 12 months, (FIG. 5I) Aberrant hepatic lipid metabolism and b-Oxidation is rescued in Asp/Clop treated mice—as analyzed by Real time PCR analysis for gene expression in the liver. Stars indicate significance. […] (FIG. 5J) Lipid deposition in the liver indicated by a dark staining in the T1 (FLASH) OUT phase is not detected—as in the CD-HFD. Still at the same time abdominal and subcutaneous fat are visible in Asp/Clop treated mice. (FIG. 5K) Histopathological signs of NASH (e.g. ballooned hepatocytes—see also stars) are absent in Asp/Clop treated mice.

The next assay relates to platelets. Description: ex vivo activation / aggregation assay on platelets taken from peripheral blood. The class given is cell-based. Particulars: platelets taken from peripheral blood of treated CD-HFD mice.
Source text: By using different dilution curves of CRP or Thr a reproducible and consistent analysis of the platelet-response rate was visible.
as §1

Consider `CC1=C(CC(=O)O)c2cc(F)ccc2/C1=C\c1ccc([S+](C)[O-])cc1` (centres unmarked) [sulindac, Sulindac], for which, in the assay with CD-HFD fed C57BL/6 mice (CD-HFD fed mice), the “Liver damage as measured by ALT levels in serum” value was “not prevented”, the development of obesity result is recorded as “do develop obesity”, the “insulin resistance (intraperitoneal glucose tolerance test)” value is given as “insulin resistant as CD-HFD fed mice” and the “development of NASH” value is “does not prevent the development of NASH”. Moreover, in the assay with CD-HFD fed C57BL/6 mice, the “Histopathological signs of NASH (e.g. ballooned hepatocytes)” value is listed as “present”; the “Aberrant hepatic lipid metabolism and b-Oxidation” value was “not rescued”. Further, in the assay on CD-HFD fed C57BL/6 mice (MRI), the “Lipid deposition in the liver (dark staining in the T1 (FLASH) OUT phase)” value is “detected”; the “abdominal and subcutaneous fat” value is “visible”. The Triglycerides in serum entry in the assay with CD-HFD fed C57BL/6 mice (at 6 or 12 months of age) is reported as “not significantly reduced”. Also, in the assay with CD-HFD fed C57BL/6 mice (at 12 months of age), the “Liver to body weight ratio” value is recorded as “not rescued”.
As to `CCCSc1nc(N[C@@H]2C[C@H]2c2ccc(F)c(F)c2)c2nnn([C@@H]3C[C@H](OCCO)[C@@H](O)[C@H]3O)c2n1` [ticagrelor, Ticagrelor], in the assay on CD-HFD fed C57BL/6 mice (CD-HFD fed mice), the “Liver damage as measured by ALT levels in serum” value is “significantly reduced”; the development of obesity entry is “do develop obesity”; the “number of HCC (HCC incidence)” value is listed as “No HCC”; the “development of NASH” value was “blocks NASH and HCC development”. Besides, in the assay with CD-HFD fed C57BL/6 mice, the “Histopathological signs of NASH (e.g. ballooned hepatocytes)” value is “not present”; the “Aberrant hepatic lipid metabolism and b-Oxidation” value was “rescued”. In addition, the Serum cholesterol result in the assay on CD-HFD fed C57BL/6 mice (at 6 and 12 months) was “significantly reduced”. For the same compound, the Triglycerides in serum entry with CD-HFD fed C57BL/6 mice (at 12 months of age) is “reduced by trend”. Further, in the assay on platelets, the “Activation status of platelets (ex vivo assay)” value was “significantly reduced” and the “Aggregation capacity status of platelets (ex vivo aggregation assay)” value is “significantly reduced”.
